The values below come from PMC8672821, “Investigating 3,3-diaryloxetanes as potential bioisosteres through matched molecular pair analysis” (RSC Medicinal Chemistry, 2021).

Molecules are shown by their SMILES.

Series [1] is described as follows: elogD, automated reversed phase-HPLC logD (pH 7.4). Type of series: physicochemical. The conditions noted are these: Supelcosil LC-ABZ column. Here is the method: elogD: An automated reversed phase-HPLC method developed by Lombardo et al. was used for logD (pH 7.4) measurements. All the chromatographic runs were performed on a HP -1100 HPLC ChemStation at the ambient temperature. The HPLC columns used were Supelcosil LC-ABZ, 5 µm, 4.6 mm × 50 mm. A diode array detector was used to monitor signals at 210, 225, 245, and 310 nm. The mobile phase consisted of 15−75% of A and 85−25% of B.
Mobile phase A: methanol with addition of 0.25% 1-octanol.
Mobile phase B: 20 mM of MOPS (morpholine−propane−sulfonic acid) buffer prepared in octanol saturated water and 0.25% of n-decylamine.
Samples were prepared in 1:1 mixture of methanol/water at 100 μg/mL concentration.
The retention of each compound is obtained at three different concentrations of methanol in the mobile phase and extrapolated to 0% methanol (100% water). […]

A short description of series [2]: sfLogD.

`Cc1cc(C2(c3cn(C)c4ccccc34)COC2)ccc1OC1CNC1` [1a]: the melting point was in the range of 100 to 103 °C. This compound also gave a chromatographic logD in series [1] of 2.13. The compound also returned a logD in series [2] of 1.37.

In turn, `Cc1cc(C(=O)c2cn(C)c3ccccc23)ccc1OC1CNC1` [1b] showed a melting point of 70 to 75 °C. Also, the logD in series [2] stood at 1.07.

In turn, `Cc1cc(Cc2cn(C)c3ccccc23)ccc1OC1CNC1` [1c] gave a melting point of 80 to 82 °C. In series [1], this compound gave a chromatographic logD of 3.1. Besides, the logD in series [2] was 1.68.

As for `Cc1cc(C(C)(C)c2cn(C)c3ccccc23)ccc1OC1CNC1` [1d], the melting point was 75 to 80 °C. Moreover, the chromatographic logD in series [1] was found to be 2.9. Further, the logD in series [2] was 2.59.

On to `Cc1cc(C2(c3cn(C)c4ccccc34)CCC2)ccc1OC1CNC1` [1e], for which the chromatographic logD in series [1] came out at 3.2. This compound registered a logD in series [2] of 2.81.

For `Cn1cc(C2(c3ccc(OC4CNC4)cc3)COC2)c2ccccc21` [2a], the chromatographic logD in series [1] amounted to 1.7. This compound also gave a logD in series [2] of 0.99.

With `Cc1cc(C2(c3cn(C)c4ccccc34)COC2)ccc1Oc1ccccn1` [3a], the melting point was 175 to 177 °C. The compound further registered a chromatographic logD in series [1] of 4.6. In series [2], the logD was determined as 4.36.

On to `Cc1cc(C(=O)c2cn(C)c3ccccc23)ccc1Oc1ccccn1` [3b], for which the melting point is 123 to 124 °C. For the same compound, the chromatographic logD in series [1] stood at 3.99. The compound further yielded a pH-dependent lipophilicity (logD) in series [2] of 1.92.

With `Cc1cc(C2(c3cn(C)c4ccccc34)COC2)ccc1-c1cnc(C(F)(F)F)nc1` [4a], the melting point was in the range of 181 to 182 °C. The compound also came in with a chromatographic logD in series [1] of 5.1.

Take `Cc1cc(C(=O)c2cn(C)c3ccccc23)ccc1-c1cnc(C(F)(F)F)nc1` [4b]: the melting point is 185 to 187 °C. In series [1], this compound displayed a chromatographic logD of 4.3. The compound further gave a logD in series [2] of 4.21.

The compound `Cc1cc(C(C)(C)c2cn(C)c3ccccc23)ccc1O` [5d] registered a melting point of 110 to 112 °C. Moreover, the chromatographic logD in series [1] came to 5.05. The compound further gave a logD in series [2] of 3.72.

For the compound `Cn1cc(C2(c3ccc(O)cc3)COC2)c2ccccc21` [6a], the melting point was 207 to 209 °C. In series [1], this compound gave a chromatographic logD of 3.28. Besides, the logD in series [2] came out at 3.27.

In the case of `COc1ccc(C2(c3ccc(OC4CNC4)c(C)c3)COC2)cc1` [7a], the melting point lay within 108 to 115 °C. Further, in series [1], the chromatographic logD was 1.43. The compound also had a logD in series [2] of 1.06.

The compound `COc1ccc(C(=O)c2ccc(OC3CNC3)c(C)c2)cc1` [7b] gave a melting point of 99 to 103 °C. Besides, the chromatographic logD in series [1] amounted to 1.74. Moreover, the logD in series [2] was 1.21.

The compound `COc1ccc(C2(c3ccc(N4CCOCC4)c(C)c3)COC2)cc1` [8a] had a melting point of 133 to 135 °C. The same compound gave a chromatographic logD in series [1] of 3.68. In series [2], the logD was 3.47.

Regarding `COc1ccc(C(=O)c2ccc(N3CCOCC3)c(C)c2)cc1` [8b], in series [1], the chromatographic logD came to 3.9. Moreover, the logD in series [2] stood at 3.06.

`COc1ccc(C2(c3ccc(-c4c[nH]nc4C(F)(F)F)c(C)c3)COC2)cc1` [9a] yielded a melting point of 175 to 177 °C. The chromatographic logD in series [1] is 4.5. Also, in series [2], the logD came to 4.62.

Compound `COc1ccc(C(=O)c2ccc(-c3c[nH]nc3C(F)(F)F)c(C)c2)cc1` [9b] returned a melting point of 207 to 208 °C. This compound also came in with a chromatographic logD in series [1] of 4.8. The logD in series [2] turned out to be 4.74.

In turn, `COc1ccc(C2(c3ccc(O)c(C)c3)COC2)cc1` [10a] came in with a melting point of 140 to 143 °C. This compound also gave a chromatographic logD in series [1] of 3.07. In series [2], this compound displayed a logD of 3.22.

Turning to `COc1ccc(C(=O)c2ccc(O)c(C)c2)cc1` [10b], the melting point fell in the range of 186 to 187 °C. For the same compound, in series [2], the logD was 3.49.
